Reference: patent US20080249043A1, “Methods and Compositions Involving Protein Kinase C-Delta” (priority 2004, published 2008)

Tests used:
Type in all cases: cell-based
[1] = system: mitochondria from HeLa cells; experiment: tBid-binding capacity of mitochondria isolated from HeLa cells (FITC-tBid(G94E)); settings: 5 μM AD198 4 h, versus DMSO-treated control cells
Protocol: (a) Increased tBid-binding capacity by AD198. Mitochondria were isolated from HeLa cells treated with 5 μM AD198 or DMSO as control for 4 h. Mitochondria (50 μg by protein) were incubated with 0, 10, 20, 60 and 100 ng/μl FITC-tBid(G94E) in total volume 50 μl for […] followed by washing to remove unbounded probes. The fluorescent intensity was quantified with Bio-Tek microplate reader. Error bars indicate standard deviations of three independent experiments. (b) Dose response with mitochondria. Various amounts of mitochondria in (a) were incubated with 10 ng/μl tBid(G94E)-FITC as in (a). The fluorescent intensity of the washed mitochondria was quantified with Bio-Tek microplate reader. (c) Expression of PLS3 or PLS3(T21D) in selected HeLa cells. […] The tBid-binding capacity of the mitochondria from each cells were analyzed as in (a). […] Mitochondria were isolated from cells in (c) and analyzed as in (b).
Analysis of the tBid-binding capacity of mitochondria—Isolated mitochondria were incubated with FITC-tBid(G94E) in 50 μl reaction buffer (250 mM sucrose, 20 mM HEPES, 10 mM KCl, 3 mM KH2PO4, 1.5 mM MgCl2, 1 mM EGTA, 0.5% mg/ml BSA, PH 7.4) for 30 min at room temperature. Mitochondria were pelleted at 10,000×g and washed extensively with the reaction buffer to remove unbound FITC-tBid(G94E) and the fluorescence intensity was quantified with Bio-Tek microplate reader.

[2] = system: HeLa cells; experiment: Apoptosis by PI staining and flow cytometry (subG1 population) in HeLa cells
Protocol: Cell culture, transfection and treatment—HeLa cells were cultured in Dulbecco's modified Eagle's medium (DMEM) containing 10% fetal bovine serum, 2 mM L-glutamine and penicillin (100 units/ml)-streptomycin (100 μg/ml) at 37° C. in a humidified 5% CO2 atmosphere. HeLa cells at 90% confluence were transfected with different mammalian expression vectors using Lipofectamin 2000 according to the manufacturer's protocol (Invitrogen Inc., Carlsbad, Calif.). At 24 h or 48 h after transfection, cells were treated with 1:100 dilution of AD198 that was dissolved in dimethyl sulfoxide (DMSO). For down-regulation of PLS3, HeLa cells at 50% confluence were transfected with siRNA against PLS3 or a scrambled control. At 48 h, cells were treated with AD198 for 16 h and harvested for flow cytometry. The whole cell lysate was extracted for analysis with Western blotting.
Analysis of apoptosis and determination of the transmembrane potential in mitochondria—Cell death was quantified by propidium iodide (PI) staining, followed by flow cytometry (Becton-Dickinson). HeLa cells were fixed in 0.5 ml cold 70% ethanol at −20° C. overnight. Cell pellet were resuspended in 300 μl of PBS containing 0.025 mg/ml PI, 0.05% Triton X-100, 0.1 mg/ml RNase A and incubated at room temperature for 30 min. The DNA content was evaluated by FACScan. For mitochondrial potential analysis, HeLa cells were incubated with MitoTracker Green at 37° C. for 20 min. The cells were collected and washed with PBS and analyzed by FACScan.
Cell culture, transfection, selection and treatment—HeLa cells were cultured in Dulbecco's modified Eagle's medium (DMEM) with 10% fetal bovine serum, 2 mM L-glutamine, 100 units/ml penicillin and 100 μg/ml streptomycin at 37° C. HeLa cells at 90% confluence were transfected with different mammalian expression vectors or siRNA using Lipofectamin 2000 according to the manufacturer's protocol (Invitrogen Inc., Carlsbad, Calif.). At 48 h after transfection, cells were incubated with 5 μM AD198 or dimethyl sulfoxide (DMSO) for 4 h or 16 h. After transfection, cells were selected with 1 mg/ml G418 for 2 wk. After corresponding mock-transfected cells were killed by G418, the concentration of G418 was decreased to 0.5 mg/ml and maintained for another 2 wk. The whole cell lysates or subcellular fractions were extracted for Western blotting analysis (Liu et al. (2003)).
Analysis of apoptosis—HeLa cells were harvested and fixed in 70% ethanol at −20° C. overnight. Cells were then washed with PBS and stained with 0.025 mg/ml propidium iodide (PI), 0.05% Triton X-100, 0.1 mg/ml RNase A for 30 min at room temperature. The DNA content was analyzed by FACScan (Becton-Dickinson), and the subG0/G1 population was used to represent apoptosis.

[3] = system: PLS3; experiment: PLS3 threonine phosphorylation: Ni-bead pulldown of His-tagged PLS3, Western blot with PT antibody, HeLa cells; settings: HeLa cells with His-tagged PLS3, AD198 0, 2, 4 and 6 h
Protocol: Pulldown of His-tagged proteins from transfected HeLa cells—Transfected HeLa cells were washed with ice-cold phosphate-buffered saline (PBS) and incubated in the lysis buffer (50 mM NaH2PO4, 500 mM NaCl, 20 mM imidazole, 1% Triton X-100, 20 mM 2-mercaptoethanol, pH8.0) for 5 min and sonicated briefly on ice. The lysates were centrifuged at 10,000×g for 10 min at 4° C. The supernatant was saved and the protein concentration was measured with the Bio-Rad protein assay (Bio-Rad Laboratories, Hercules, Calif.) and adjusted to same concentrations for each sample. The supernatants were incubated with Ni-beads on a shaker for 2 h at 4° C. Beads were then pelleted at 800×g for 2 min at 4° C. and washed with ice-cold wash buffer (50 mM NaH2PO4, 500 mM NaCl, 20 mM imidazole, 1% Triton X-100, pH8.0) for five times. Beads were resuspended in SDS sample buffer and analyzed by Western blotting.
Western blot analysis—Equal amounts of protein were analyzed by 10% SDS-PAGE and electrotransferred to Immobilon-P membranes (Millipore Corporation, Bedford, Mass.). Monoclonal PKC-δ, PT, and β-actin and polyclonal VDAC antibodies were used at 1:1,000 and polyclonal PLS3 antibody was used at 1:2,000 for immunoblotting. Secondary anti-mouse or anti-rabbit antibodies conjugated with horseradish peroxidase were used at 1:2,000 and incubated with the membrane for 1 h at room temperature. […]

CCCCC(=O)OCC(=O)[C@]1(O)Cc2c(O)c3c(c(O)c2[C@@H](O[C@H]2C[C@H](NCc4ccccc4)[C@H](O)[C@H](C)O2)C1)C(=O)c1c(OC)cccc1C3=O [AD198, N-benzyladriamycin-14-valerate]
tBid-binding capacity of mitochondria [1]: significantly higher tBid-binding capacity
AD198-induced apoptosis ([2]; HeLa cells expressing PLS3(T21A), 5 μM AD198, 16 h (FIG. 9)): same degree of apoptosis as the control cells
percentage of AD198-induced apoptosis ([2]; HeLa cells expressing wild-type PLS3, 5 μM AD198, 16 h (FIG. 9)): 31%
apoptosis after AD198 treatment ([2]; HeLa cells expressing wild-type PLS3, 5 μM AD198, 16 h (FIG. 11), DMSO 9%): 43%
apoptosis after AD198 treatment ([2]; HeLa cells transfected with PLS3(T21D), 5 μM AD198, 16 h (FIG. 11), DMSO 17%): 27%
AD198-induced apoptosis when PKC-δ down regulated by siRNA ([2]; HeLa cells, AD198 1, 5 and 10 μM, 16 h): less apoptosis was detected
sensitivity to AD198-induced apoptosis of cells with overexpression of PLS3 ([2]; HeLa cells, three concentrations of AD198, 16 h, versus without PLS3 overexpression): more sensitive
AD198-induced apoptosis in cells transfected with siRNA against PLS3 ([2]; HeLa cells, versus scrambled siRNA control, 16 h): suppressed
apoptosis after AD198 treatment ([2]; HeLa-control cells, 5 μM AD198, 16 h (FIG. 11), DMSO 6%): 22%
percentage of AD198-induced apoptosis ([2]; control HeLa cells, 5 μM AD198, 16 h (FIG. 9)): 7%
threonine phosphorylation of PLS3 [3]: steadily increased
